Counter-ions that a name gives are not always drawn.
Experiments:
HCT116 [1] = assay: efficacy (fitted maximal change in viability relative to DMSO control); higher = less cytotoxic (negative = loss of viability); conditions: 48 h
HCT116 [2] = assay: AC50 cell viability (CellTiter-Glo); higher = less potent; conditions: 48 h
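Throughout, for AC50 cell viability (CellTiter-Glo): HCT116 colorectal carcinoma cells screened at five concentrations per compound, luminescent viability scaled between DMSO wells and empty wells on each plate, curves fitted per compound.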
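Throughout, for efficacy (fitted maximal change in viability relative to DMSO control): Luminescence-based viability readout, five doses per compound, normalized against on-plate DMSO and empty-well controls, followed by dose-response curve fitting for every drug.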

SMILES | efficacy (HCT116 [1]) | AC50 cell viability (HCT116 [2])
COc1cc2nccc(Oc3ccc(NC(=O)C4(C(=O)Nc5ccc(F)cc5)CC4)cc3)c2cc1OC [Cabozantinib] | -65.4% | 7.42 µM
CC(N[C@H]1CCCC[C@@H]1NC(=O)c1ccc(Cl)cc1)c1cccc2ccccc12 (stereo partly specified) [Calhex-231] | -92.8% | 9.34 µM
C[C@@H](NCc1cc2ccccc2[nH]1)c1cccc2ccccc12 [Calindol] | -94.8% | 13.2 µM
Clc1ccc(C(c2ccc(Cl)cc2)[n+]2ccn(CC(OCc3ccc(Cl)cc3Cl)c3ccc(Cl)cc3Cl)c2)cc1 (stereo unspecified) [Calmidazolium chloride] | -100% | 10.5 µM
Cc1ccc([C@@H]2O[C@H](CO)[C@@H](O)[C@H](O)[C@H]2O)cc1Cc1ccc(-c2ccc(F)cc2)s1 [Canagliflozin] | -83.7% | 23.5 µM
C=CC(=O)Nc1cc2c(Nc3ccc(F)c(Cl)c3)ncnc2cc1OCCCN1CCOCC1 [Canertinib] | -116% | 14.8 µM
CCCCCC1=CC(=C([C@@H]2\C=C(C)/CC[C@H]2C(C)=C)C(=C1)O)O [Cannabidiol] | -84.5% | 20.9 µM
C[C@@]12C(=O)OC(=O)[C@]1(C)[C@H]1CC[C@@H]2O1 [Cantharidin] | -86.9% | 9.34 µM
CC(C)C[C@H](NC(=O)[C@H](CCc1ccccc1)NC(=O)CN1CCOCC1)C(=O)N[C@@H](Cc1ccccc1)C(=O)N[C@@H](CC(C)C)C(=O)[C@@]1(C)CO1 [Carfilzomib] | -93.6% | 0.0118 µM
CCCCCCNC(=O)N1\C=C(F)/C(=O)NC1=O [Carmofur] | -61.6% | 4.17 µM
CCNc1cc(NC2CCC(O)CC2)nc(Nc2ccc3c(ccn3Cc3ccccc3)c2)n1 (stereo unspecified) [Cdk4/6 Inhibitor IV] | -51.1% | 20.9 µM
COc1cc2c(Oc3ccc4[nH]c(C)cc4c3F)ncnc2cc1OCCCN1CCCC1 [Cediranib] | -111% | 14.8 µM
Cc1ccc(-c2cc(C(F)(F)F)nn2-c2ccc([S+](N)(=O)[O-])cc2)cc1 [Celecoxib] | -77.8% | 18.6 µM
C/C=C(\C)C(=O)N[C@@H](c1ccccc1)[C@@H](O)C(=O)O[C@H]1C[C@@]2(O)[C@@H](OC(=O)c3ccccc3)[C@@H]3[C@]4(OC(C)=O)CO[C@@H]4C[C@H](O)[C@@]3(C)C(=O)[C@H](OC(C)=O)C(=C1C)C2(C)C [Cephalomannine] | -63.5% | 0.0263 µM
Cc1cc(Nc2ncc(Cl)c(Nc3ccccc3[S+](=O)([O-])C(C)C)n2)c(OC(C)C)cc1C1CCNCC1 [Ceritinib] | -115% | 13.2 µM
C/C=C/C/C=C/CCC(=O)[C@H]1O[C@H]1C(N)=O [Cerulenin] | -80.2% | 16.6 µM
CNCCCOc1cc(F)c(-c2c(Cl)nc3ncnn3c2N[C@@H](C)C(F)(F)F)c(F)c1 [Cevipabulin] | -60.6% | 0.0525 µM
Nc1ccc(F)cc1NC(=O)c1ccc(CNC(=O)/C=C/c2cccnc2)cc1 [Chidamide] | -90.4% | 5.9 µM
N=C(NCCCCCCNC(=N)NC(=N)Nc1ccc(Cl)cc1)NC(=N)Nc1ccc(Cl)cc1 [Chlorhexidine] | -93.5% | 20.9 µM
Oc1c(Cl)cc(Cl)c2cccnc12 [Chloroxine] | -86.7% | 13.2 µM

SMILES | efficacy (HCT116 [1]) | AC50 cell viability (HCT116 [2])
OC1=CC2=C(C(=C1)O)C(=O)\C=C(/O2)C3=CC=CC=C3 [Chrysine] | -49.1% | 20.9 µM
CC(C)C(=O)OCC(=O)[C@@]12O[C@@H](O[C@@H]1C[C@H]3[C@@H]4CC\C5=C\C(=O)\C=C/[C@]5(C)[C@H]4[C@@H](O)C[C@]23C)C6CCCCC6 [Ciclesonide] | -78.4% | 20.9 µM
CC/1=C/C(=O)N(O)/C(=C1)C2CCCCC2 [Ciclopirox] | -89.1% | 3.72 µM
C[C@@H](NCCCc1cccc(C(F)(F)F)c1)c1cccc2ccccc12 [Cinacalcet hydrochloride] | -92.6% | 16.6 µM
Nc1nc(Cl)nc2c1ncn2[C@H]1C[C@H](O)[C@@H](CO)O1 [Cladribine] | -55.8% | 0.295 µM
Clc1ccc(Cn2c(CN3CCCC3)nc3ccccc32)cc1 [Clemizole hydrochloride] | -93.1% | 23.5 µM
CCN(CC)CCOc1ccc(/C(=C(\Cl)c2ccccc2)c2ccccc2)cc1 [Clomifene citrate] | -90.7% | 8.33 µM
Clc1ccccc1C(c1ccccc1)(c1ccccc1)n1ccnc1 [Clotrimazole] | -81.6% | 20.9 µM
CN1CCN(CC1)\C2=N\C3=C(NC4=C2C=CC=C4)C=CC(=C3)Cl [Clozapine] | -99.6% | 20.9 µM
O=C(c1ccc(F)c(F)c1Nc1ccc(I)cc1F)N1CC(O)([C@@H]2CCCCN2)C1 [Cobimetinib] | -105% | 1.86 µM
COC/1=C/C=C2\C(=C/C1=O)[C@H](CCC3=CC(=C(OC)C(=C23)OC)OC)NC(C)=O [Colchicine] | -59.9% | 0.0661 µM
CN1CCc2c(n(Cc3ccc(C(=O)NO)cc3)c3ccccc23)C1 [Compound 7] | -98.9% | 26.3 µM
O=[S+]([O-])(Nc1ccc(-c2cccnc2)c2cccnc12)c1cccc(C(F)(F)F)c1 [Compound 22d] | -73.3% | 4.17 µM
Cc1nc2c([nH]1)-c1ccccc1N(C(=O)c1ccc(NC(=O)c3ccccc3-c3ccccc3)cc1)CC2 [Conivaptan hydrochloride] | -45.3% | 20.9 µM
COC1=C(OCCCN2CCOCC2)C=CC\3=C1/N=C(/NC(=O)C4=CN=C(N)N=C4)N5CC/N=C35 [Copanlisib] | -57.4% | 0.0679 µM
C=C1C(=O)OC2/C=C(/C)CC/C=C(/C)CCC12 (stereo unspecified) [Costunolide] | -86.2% | 20.9 µM
C[C@H](NC(=O)CCC(F)(F)F)C(=O)N[C@@H]1C(=O)N(CCO)c2ncccc2-c2ccccc21 [Crenigacestat] | -44.7% | 0.332 µM
CC1(COc2ccc3c(c2)ncn3-c2ccc3cccc(N4CCC(N)CC4)c3n2)COC1 [Crenolanib] | -104% | 2.95 µM
C[C@@H](Oc1cc(-c2cnn(C3CCNCC3)c2)cnc1N)c1c(Cl)ccc(F)c1Cl [Crizotinib] | -100% | 4.17 µM
CC(C)(O)/C=C\C(=O)[C@](C)(O)[C@H]1[C@H](O)C[C@]2(C)[C@@H]3CC=C4[C@@H](C=C(O)C(=O)C4(C)C)[C@]3(C)C(=O)C[C@@]12C [Cucurbitacin I] | -77.1% | 0.166 µM

SMILES | efficacy (HCT116 [1]) | AC50 cell viability (HCT116 [2])
COc1cc(/C=C/C(=O)CC(=O)/C=C/c2ccc(O)c(OC)c2)ccc1O [Curcumin] | -68% | 4.17 µM
C[C@H]1CCC/C=C/C2C[C@H](O)C[C@H]2[C@H](O)/C=C/C(=O)O1 (stereo partly specified) [Cyanein] | -91.1% | 0.235 µM
CN(C)CCC=C1C2=C(C=CC=C2)\C=C/C3=C1C=CC=C3 [Cyclobenzaprine hydrochloride] | -92.3% | 18.6 µM
OC[C@H]1O[C@@H]2[C@@H](OC\3=N\C(=N)\C=C/[N@@]23)[C@@H]1O [Cyclocytidine hydrochloride] | -59.3% | 0.186 µM
C[C@@H]1C[C@@H]([C@H](O)CC2CC(=O)NC(=O)C2)C(=O)[C@@H](C)C1 [Cycloheximide] | -68.6% | 0.468 µM
CN1CCC(CC1)=C2C3=C(C=CC=C3)\C=C/C4=C2C=CC=C4 [Cyproheptadine hydrochloride] | -81.9% | 23.5 µM
NC\1=N\C(=O)N(\C=C1)[C@@H]2O[C@H](CO)[C@@H](O)[C@@H]2O [Cytarabine] | -61.7% | 0.0742 µM
CCCCCCCCCCCCCC(=O)N[C@H](CO)[C@H](O)c1ccc([N+](=O)[O-])cc1 [D-NMAPPD] | -101% | 26.3 µM
ClC/1=C(NCCN2CCOCC2)/C(=O)C3=C(C=CC=N3)C1=O [DA-3003-1] | -90.7% | 5.9 µM
Nc1cccc([S+](=O)([O-])N2CCCN([S+](=O)([O-])c3ccc4c(c3)OCCO4)CC2)c1 [DASA-58] | -59.9% | 14.8 µM
CNC(=O)c1cc(Oc2ccc(NC(=O)Nc3cc(C(C)(C)C)nn3-c3ccc4ncccc4c3)c(F)c2)ccn1 [DCC-2036] | -76% | 11.8 µM
CCCCCN(CCC12CC3CC(CC(C3)C1)C2)C(=O)NCCCc1ccncc1 [DE-096] | -90.2% | 16.6 µM
COc1cc([C@@H]2c3cc4c(cc3[C@@H](O)C3COC(=O)C32)OCO4)cc(OC)c1O (stereo partly specified) [DMEP] | -52.3% | 0.235 µM
CN(C)/N=N/c1nc[nH]c1C(N)=O [Dacarbazine] | -45.8% | 10.5 µM
O=C(/C=C/c1ccc(CN(CCO)CCc2c[nH]c3ccccc23)cc1)NO [Dacinostat] | -89.1% | 0.0833 µM
COc1cc2ncnc(Nc3ccc(F)c(Cl)c3)c2cc1NC(=O)/C=C/CN1CCCCC1 [Dacomitinib] | -99.1% | 8.33 µM
CO[C@@H](C(=O)N1Cc2[nH]nc(NC(=O)c3ccc(N4CCN(C)CC4)cc3)c2C1)c1ccccc1 [Danusertib] | -71.4% | 1.66 µM
O=C(/C=C/c1cccnc1)NCCCCC1CCN(C(=O)c2ccccc2)CC1 [Daporinad] | -94.1% | 0.00525 µM
